# What was measured:
# [1] = target: Tyrosine-protein kinase Blk (Homo sapiens) (UniProt P51451); conditions: Compound concentration 1000.0 nM
# [2] = target: Phosphorylase b kinase regulatory subunit alpha, liver isoform (Homo sapiens) (UniProt P46019); conditions: Compound concentration 1000.0 nM
# [3] = target: Serine/threonine-protein kinase pim-1 (Homo sapiens) (UniProt P11309); conditions: Compound concentration 1000.0 nM
# [4] = target: Homeodomain-interacting protein kinase 4 (Homo sapiens) (UniProt Q8NE63); conditions: Compound concentration 1000.0 nM
# Sequence of Homeodomain-interacting protein kinase 4 (Homo sapiens) (Q8NE63 whole entry): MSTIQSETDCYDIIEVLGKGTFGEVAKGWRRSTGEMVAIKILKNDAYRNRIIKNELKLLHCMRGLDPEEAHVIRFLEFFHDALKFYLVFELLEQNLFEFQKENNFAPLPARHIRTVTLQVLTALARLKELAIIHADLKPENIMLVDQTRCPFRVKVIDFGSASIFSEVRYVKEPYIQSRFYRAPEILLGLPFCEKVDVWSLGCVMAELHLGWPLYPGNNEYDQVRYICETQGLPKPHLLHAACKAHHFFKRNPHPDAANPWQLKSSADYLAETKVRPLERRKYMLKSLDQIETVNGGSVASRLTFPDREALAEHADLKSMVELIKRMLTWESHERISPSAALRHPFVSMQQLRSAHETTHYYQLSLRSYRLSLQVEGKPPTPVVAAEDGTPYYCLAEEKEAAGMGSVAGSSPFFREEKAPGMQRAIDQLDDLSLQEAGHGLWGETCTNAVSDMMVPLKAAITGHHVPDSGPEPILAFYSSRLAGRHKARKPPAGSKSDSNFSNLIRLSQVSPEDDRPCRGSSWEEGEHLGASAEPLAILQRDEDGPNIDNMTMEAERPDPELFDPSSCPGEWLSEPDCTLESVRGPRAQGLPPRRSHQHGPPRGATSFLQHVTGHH
# [5] = test system: Epidermal growth factor receptor (Homo sapiens), P00533 [L858R]; conditions: Compound concentration 1000.0 nM
# [6] = target: Serine/threonine-protein kinase PAK 4 (Homo sapiens) (UniProt O96013); conditions: Compound concentration 1000.0 nM
# [7] = target: D(2) dopamine receptor (Homo sapiens) (UniProt P14416); conditions: Compound concentration 10.0 uM
# Sequence of D(2) dopamine receptor (Homo sapiens) (P14416 whole entry): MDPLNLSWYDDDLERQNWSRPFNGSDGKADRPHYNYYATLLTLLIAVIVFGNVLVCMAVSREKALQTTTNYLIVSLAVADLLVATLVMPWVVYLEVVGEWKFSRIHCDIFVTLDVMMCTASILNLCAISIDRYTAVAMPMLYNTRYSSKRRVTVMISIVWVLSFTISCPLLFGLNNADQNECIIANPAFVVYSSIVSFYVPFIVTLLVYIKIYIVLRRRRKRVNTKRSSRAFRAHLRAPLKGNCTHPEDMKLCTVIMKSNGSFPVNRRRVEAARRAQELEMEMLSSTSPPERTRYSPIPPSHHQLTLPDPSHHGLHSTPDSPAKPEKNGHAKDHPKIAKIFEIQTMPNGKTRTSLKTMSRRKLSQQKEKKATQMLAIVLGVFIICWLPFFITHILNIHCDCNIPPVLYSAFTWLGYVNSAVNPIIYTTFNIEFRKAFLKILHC
# [8] = target: Serine/threonine-protein kinase Nek1 (Homo sapiens) (UniProt Q96PY6); conditions: Compound concentration 1000.0 nM
# [9] = target: Serine/threonine-protein kinase MRCK beta (Homo sapiens) (UniProt Q9Y5S2); conditions: Compound concentration 1000.0 nM
# [10] = target: Mitogen-activated protein kinase 3 (Homo sapiens) (UniProt P27361); conditions: Compound concentration 1000.0 nM
# [11] = target: 5-hydroxytryptamine receptor 5A (Homo sapiens) (UniProt P47898); conditions: Compound concentration 10.0 uM
# Sequence of 5-hydroxytryptamine receptor 5A (Homo sapiens) (P47898 whole entry): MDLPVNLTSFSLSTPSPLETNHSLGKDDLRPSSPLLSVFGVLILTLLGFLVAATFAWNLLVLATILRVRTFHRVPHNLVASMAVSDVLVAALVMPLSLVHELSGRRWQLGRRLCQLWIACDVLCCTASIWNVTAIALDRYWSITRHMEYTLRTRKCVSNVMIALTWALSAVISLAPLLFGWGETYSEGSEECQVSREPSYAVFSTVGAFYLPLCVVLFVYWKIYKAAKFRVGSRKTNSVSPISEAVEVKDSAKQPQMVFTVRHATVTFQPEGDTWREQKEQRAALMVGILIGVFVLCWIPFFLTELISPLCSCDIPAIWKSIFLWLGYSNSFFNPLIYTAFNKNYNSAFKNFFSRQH
# [12] = target: Activin receptor type-2A (Homo sapiens) (UniProt P27037); conditions: Compound concentration 1000.0 nM
# Sequence of Activin receptor type-2A (Homo sapiens) (P27037 whole entry): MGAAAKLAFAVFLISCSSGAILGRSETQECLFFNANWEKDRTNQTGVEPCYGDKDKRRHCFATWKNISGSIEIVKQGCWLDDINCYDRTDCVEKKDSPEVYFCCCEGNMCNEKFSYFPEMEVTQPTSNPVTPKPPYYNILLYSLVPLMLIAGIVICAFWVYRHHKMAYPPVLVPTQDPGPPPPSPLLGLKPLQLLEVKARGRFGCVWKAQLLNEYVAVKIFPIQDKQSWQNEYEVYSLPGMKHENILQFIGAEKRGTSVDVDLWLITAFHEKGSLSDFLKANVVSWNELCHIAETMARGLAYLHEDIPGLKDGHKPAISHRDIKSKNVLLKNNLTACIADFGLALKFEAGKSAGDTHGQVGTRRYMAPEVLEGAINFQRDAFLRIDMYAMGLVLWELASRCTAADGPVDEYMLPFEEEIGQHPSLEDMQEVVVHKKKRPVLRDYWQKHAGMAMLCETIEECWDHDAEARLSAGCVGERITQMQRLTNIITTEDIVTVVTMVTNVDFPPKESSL
# [13] = target: Myosin light chain kinase (Homo sapiens) (UniProt Q32MK0); conditions: Compound concentration 1000.0 nM
# Sequence of Myosin light chain kinase (Homo sapiens) (Q32MK0 whole entry): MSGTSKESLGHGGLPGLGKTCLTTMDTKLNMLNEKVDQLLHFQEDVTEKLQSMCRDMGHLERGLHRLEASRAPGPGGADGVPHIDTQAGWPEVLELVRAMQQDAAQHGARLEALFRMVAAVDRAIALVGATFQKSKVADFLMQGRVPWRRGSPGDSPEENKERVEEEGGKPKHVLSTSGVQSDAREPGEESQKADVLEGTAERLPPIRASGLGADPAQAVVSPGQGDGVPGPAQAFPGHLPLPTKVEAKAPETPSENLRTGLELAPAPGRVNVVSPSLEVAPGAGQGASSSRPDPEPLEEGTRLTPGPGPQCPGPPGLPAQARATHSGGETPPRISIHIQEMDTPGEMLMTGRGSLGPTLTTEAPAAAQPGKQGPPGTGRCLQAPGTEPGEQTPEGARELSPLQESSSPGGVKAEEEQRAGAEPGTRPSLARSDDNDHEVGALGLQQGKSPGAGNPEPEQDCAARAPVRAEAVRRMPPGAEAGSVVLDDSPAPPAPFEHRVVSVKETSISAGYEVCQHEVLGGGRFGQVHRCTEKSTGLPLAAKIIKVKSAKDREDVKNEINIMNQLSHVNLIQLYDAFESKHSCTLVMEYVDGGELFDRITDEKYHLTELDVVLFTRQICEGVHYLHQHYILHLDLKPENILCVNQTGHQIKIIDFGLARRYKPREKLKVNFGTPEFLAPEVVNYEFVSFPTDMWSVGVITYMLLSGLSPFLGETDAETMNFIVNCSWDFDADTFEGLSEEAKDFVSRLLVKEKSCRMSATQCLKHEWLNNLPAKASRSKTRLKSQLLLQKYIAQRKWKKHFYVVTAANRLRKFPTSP
# [14] = target: Serine/threonine-protein kinase Nek2 (Homo sapiens) (UniProt P51955); conditions: Compound concentration 1000.0 nM
# [15] = target: LIM domain kinase 1 (Homo sapiens) (UniProt P53667); conditions: Compound concentration 1000.0 nM
# [16] = target: Insulin receptor (Homo sapiens) (UniProt P06213); conditions: Compound concentration 1000.0 nM
# [17] = target: Calcium/calmodulin-dependent protein kinase type II subunit gamma (Homo sapiens) (UniProt Q13555); conditions: Compound concentration 1000.0 nM
# [18] = target: Serine/threonine-protein kinase MRCK alpha (Homo sapiens) (UniProt Q5VT25); conditions: Compound concentration 1000.0 nM
# Sequence of Serine/threonine-protein kinase MRCK alpha (Homo sapiens) (Q5VT25 whole entry): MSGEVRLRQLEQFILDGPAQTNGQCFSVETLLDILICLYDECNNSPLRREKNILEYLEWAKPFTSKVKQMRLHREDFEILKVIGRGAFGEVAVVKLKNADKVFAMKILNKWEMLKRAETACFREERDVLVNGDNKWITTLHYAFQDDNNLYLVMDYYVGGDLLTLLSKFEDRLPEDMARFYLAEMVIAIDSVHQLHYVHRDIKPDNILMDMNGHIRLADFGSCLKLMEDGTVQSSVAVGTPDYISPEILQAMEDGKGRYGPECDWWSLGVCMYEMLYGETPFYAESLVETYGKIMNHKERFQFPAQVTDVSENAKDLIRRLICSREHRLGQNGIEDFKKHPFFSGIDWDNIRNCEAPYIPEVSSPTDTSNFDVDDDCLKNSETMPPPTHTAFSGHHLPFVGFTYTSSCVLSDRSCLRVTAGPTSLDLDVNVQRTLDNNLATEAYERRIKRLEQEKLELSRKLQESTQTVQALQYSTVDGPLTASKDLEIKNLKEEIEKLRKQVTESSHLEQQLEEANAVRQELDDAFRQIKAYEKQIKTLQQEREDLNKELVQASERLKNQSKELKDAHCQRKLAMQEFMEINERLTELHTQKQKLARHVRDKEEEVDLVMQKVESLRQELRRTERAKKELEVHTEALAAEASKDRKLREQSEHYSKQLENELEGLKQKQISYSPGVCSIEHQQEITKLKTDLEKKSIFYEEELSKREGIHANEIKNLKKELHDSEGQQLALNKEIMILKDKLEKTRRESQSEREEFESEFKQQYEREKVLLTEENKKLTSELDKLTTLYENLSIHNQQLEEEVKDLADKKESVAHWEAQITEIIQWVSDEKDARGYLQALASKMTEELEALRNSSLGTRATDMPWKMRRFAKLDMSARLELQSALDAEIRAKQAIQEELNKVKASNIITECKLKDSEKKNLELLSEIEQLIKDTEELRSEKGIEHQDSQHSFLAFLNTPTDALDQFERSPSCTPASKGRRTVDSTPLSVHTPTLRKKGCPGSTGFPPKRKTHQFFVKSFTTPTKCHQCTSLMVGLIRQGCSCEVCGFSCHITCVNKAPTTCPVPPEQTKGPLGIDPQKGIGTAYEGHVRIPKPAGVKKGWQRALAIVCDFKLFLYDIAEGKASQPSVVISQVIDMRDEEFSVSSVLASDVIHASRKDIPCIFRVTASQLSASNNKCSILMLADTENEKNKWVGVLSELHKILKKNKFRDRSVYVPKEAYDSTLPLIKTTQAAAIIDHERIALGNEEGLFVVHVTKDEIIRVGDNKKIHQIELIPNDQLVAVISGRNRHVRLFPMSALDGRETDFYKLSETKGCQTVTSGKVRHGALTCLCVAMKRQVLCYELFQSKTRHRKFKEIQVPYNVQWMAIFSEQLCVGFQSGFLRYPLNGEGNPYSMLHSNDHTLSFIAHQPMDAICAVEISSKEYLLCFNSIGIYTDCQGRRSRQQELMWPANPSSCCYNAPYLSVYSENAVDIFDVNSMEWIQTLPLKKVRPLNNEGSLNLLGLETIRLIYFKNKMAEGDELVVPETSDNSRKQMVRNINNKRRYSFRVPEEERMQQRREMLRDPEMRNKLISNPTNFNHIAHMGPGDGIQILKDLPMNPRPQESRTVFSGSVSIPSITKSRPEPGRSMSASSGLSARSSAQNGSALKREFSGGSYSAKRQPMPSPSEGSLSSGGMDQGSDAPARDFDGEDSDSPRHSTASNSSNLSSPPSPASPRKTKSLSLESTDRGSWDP
# [19] = target: Serine/threonine-protein kinase NLK (Homo sapiens) (UniProt Q9UBE8); conditions: Compound concentration 1000.0 nM
# [20] = target: Dual specificity tyrosine-phosphorylation-regulated kinase 1A (Homo sapiens) (UniProt Q13627); conditions: Compound concentration 1000.0 nM
# [21] = target: Serine/threonine-protein kinase RIO1 (Homo sapiens) (UniProt Q9BRS2); conditions: Compound concentration 1000.0 nM
# [22] = target: Eukaryotic translation initiation factor 2-alpha kinase 1 (Homo sapiens) (UniProt Q9BQI3); conditions: Compound concentration 1000.0 nM
# [23] = target: Homeodomain-interacting protein kinase 3 (Homo sapiens) (UniProt Q9H422); conditions: Compound concentration 1000.0 nM
# [24] = test system: Tyrosine-protein kinase ABL1 (Homo sapiens), P00519 [F317I]; conditions: Compound concentration 1000.0 nM
# [25] = target: Uncharacterized serine/threonine-protein kinase SBK3 (Homo sapiens) (UniProt P0C264); conditions: Compound concentration 1000.0 nM
# [26] = target: TRAF2 and NCK-interacting protein kinase (Homo sapiens) (UniProt Q9UKE5); conditions: Compound concentration 1000.0 nM
# [27] = target: Cyclin-dependent kinase 11A (Homo sapiens) (UniProt Q9UQ88); conditions: Compound concentration 1000.0 nM
# Histamine H4 receptor = Histamine H4 receptor (Homo sapiens, UniProt Q9H3N8); test: GPCRScan assay: inhibition of H4; set-up: radioligand conc. used [nm] 1.0 – 5.0, parental cells HEK T
# [28] = target: Dual specificity mitogen-activated protein kinase kinase 2 (Homo sapiens) (UniProt P36507); conditions: Compound concentration 1000.0 nM
# Fatty acid synthase = Fatty acid synthase (Homo sapiens, UniProt P49327); test: Human FAS enzyme assay
# [29] = target: Alpha-2A adrenergic receptor (Homo sapiens) (UniProt P08913); conditions: Compound concentration 10.0 uM
# [30] = target: Activin receptor type-1B (Homo sapiens) (UniProt P36896); conditions: Compound concentration 1000.0 nM
# [31] = target: 5-hydroxytryptamine receptor 1B (Homo sapiens) (UniProt P28222); conditions: Compound concentration 10.0 uM
# [32] = target: Adenosine receptor A2a (Homo sapiens) (UniProt P29274); test: A2A/HU Eurofins-Panlabs selectivity data (BI); conditions: Compound concentration 10.0 uM
# [33] = target: Beta-2 adrenergic receptor (Homo sapiens) (UniProt P07550); test: BETA2/HU Eurofins-Panlabs selectivity data (BI); conditions: Compound concentration 10.0 uM
# [34] = target: Protein kinase C alpha type (Mus musculus) (UniProt P20444); test: PHORBOLE/M Eurofins-Panlabs selectivity data (BI); conditions: Compound concentration 10.0 uM
# [35] = target: D(2) dopamine receptor (Homo sapiens) (UniProt P14416); test: D2S/HU Eurofins-Panlabs selectivity data (BI); conditions: Compound concentration 10.0 uM
# [36] = target: Histamine H1 receptor (Homo sapiens) (UniProt P35367); test: H1/H Eurofins-Panlabs selectivity data (BI); conditions: Compound concentration 10.0 uM
# [37] = target: Alpha-1D adrenergic receptor (Homo sapiens) (UniProt P25100); conditions: Compound concentration 10.0 uM
# [38] = target: Gamma-aminobutyric acid receptor subunit alpha-1 (Rattus norvegicus) (UniProt P62813); test: GABAA MUSCIMOL CENT Eurofins-Panlabs selectivity data (BI); conditions: Compound concentration 10.0 uM
# [39] = target: D(1A) dopamine receptor (Homo sapiens) (UniProt P21728); test: D1/HU Eurofins-Panlabs selectivity data (BI); conditions: Compound concentration 10.0 uM
# [40] = target: Pyroglutamylated RF-amide peptide receptor (Homo sapiens) (UniProt Q96P65); test: GPR103 Eurofins-Panlabs selectivity data (BI); conditions: Compound concentration 10.0 uM
# [41] = target: hERG (KCNH2) potassium channel (Homo sapiens, UniProt Q12809); test: K+/HERG Eurofins-Panlabs selectivity data (BI); conditions: compound concentration 10 uM, read-out: % Ctrl
# [42] = target: Alpha-2A adrenergic receptor (Homo sapiens) (UniProt P08913); test: ALPHA2A/H Eurofins-Panlabs selectivity data (BI); conditions: Compound concentration 10.0 uM
# [43] = target: Muscarinic acetylcholine receptor M3 (Homo sapiens) (UniProt P20309); test: M3/HU Eurofins-Panlabs selectivity data (BI); conditions: Compound concentration 10.0 uM
# [44] = target: Mu-type opioid receptor (Homo sapiens) (UniProt P35372); test: MU/HU Eurofins-Panlabs selectivity data (BI); conditions: Compound concentration 10.0 uM
# Sequence of Tyrosine-protein kinase Blk (Homo sapiens) (P51451 2-505 limits assumed): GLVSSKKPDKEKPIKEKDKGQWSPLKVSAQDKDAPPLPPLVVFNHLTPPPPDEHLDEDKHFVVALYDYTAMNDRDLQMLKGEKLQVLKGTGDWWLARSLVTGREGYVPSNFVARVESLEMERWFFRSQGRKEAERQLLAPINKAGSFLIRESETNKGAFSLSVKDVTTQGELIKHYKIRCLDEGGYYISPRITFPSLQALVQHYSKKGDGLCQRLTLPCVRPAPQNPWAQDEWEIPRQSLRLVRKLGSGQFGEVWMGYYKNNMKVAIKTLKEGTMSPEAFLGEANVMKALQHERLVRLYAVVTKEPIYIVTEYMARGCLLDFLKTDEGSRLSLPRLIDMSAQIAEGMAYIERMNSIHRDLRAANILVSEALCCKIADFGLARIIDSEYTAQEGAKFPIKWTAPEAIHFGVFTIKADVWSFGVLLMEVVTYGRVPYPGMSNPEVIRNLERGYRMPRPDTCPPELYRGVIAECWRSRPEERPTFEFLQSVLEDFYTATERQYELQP
SMILES,residual activity [1] [%],residual activity [2] [%],residual activity [3] [%],residual activity [4] [%],residual activity [5] [%],residual activity [6] [%],inhibition [7] [%],residual activity [8] [%],residual activity [10] [%],inhibition [11] [%],residual activity [12] [%],residual activity [13] [%],residual activity [14] [%],residual activity [15] [%],residual activity [16] [%],residual activity [17] [%],residual activity [18] [%],residual activity [19] [%],residual activity [20] [%],residual activity [21] [%],also measured
CCC(=O)N[C@@H]1CC[C@H](C(=O)N(C)c2ccc(-c3nc4ccccc4o3)cc2)C1 [BI 99990],100,100,100,100,100,100,18.6,100,100,-3.5,100,100,100,100,93,100,100,100,98,100,residual activity [9]: 100%; residual activity [22]: 88%; residual activity [23]: 76%; residual activity [24]: 87%; residual activity [25]: 88%; residual activity [26]: 100%; residual activity [27]: 100%; Ki (Histamine H4 receptor): 1630 nM; residual activity [28]: 100%; IC50 (Fatty acid synthase): > 3000 nM (not active); inhibition [29]: 11.2%; residual activity [30]: 100%
CCC(=O)N[C@H]1CC[C@@H](C(=O)N(C)c2ccc(-c3nc4ccccc4o3)cc2)C1 [BI 99179],97,100,100,100,97,100,14.3,100,100,-1.85,98,97,100,86,91,95,87,87,63,99,inhibition [31]: 25.7%; residual activity [32]: 90%; residual activity [33]: 100%; residual activity [34]: 94%; residual activity [35]: 95%; residual activity [36]: 87%; inhibition [37]: 50%; residual activity [38]: 96%; residual activity [39]: 93%; residual activity [22]: 93%; residual activity [23]: 74%; residual activity [40]: 101%; activity at 10 µM [41]: 105% (not active); residual activity [26]: 100%; residual activity [27]: 97%; residual activity [42]: 98%; residual activity [43]: 106%; residual activity [44]: 100%
